Each compound was assayed against G12C K-Ras4B (1-169) (Homo sapiens (Human), UniProt P01116, G12C) (assay: Test of compounds on whether to bind to KRASG12C (LC-MS compound binding rate)). Details: final compound concentration of 2 μM, 1 μM protein, 25° C. for 2 hours.
In short: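 K-Ras4B (1-169) WT and G12C (1 μM each, mixed) in 1×TBS, 0.1 mM TCEP incubated with compound (final 2 μM) 2 h at 25° C; quenched with 0.2% formic acid. Intact-protein LC-MS (ESI+, deconvoluted); binding rate = adduct signal/(adduct + unbound signal), giving selectivity over WT.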

SMILES	binding rate for G12C K-Ras4B (1-169)
C=CC(=O)N1CC(NC(=O)c2c(Cl)nc(CNc3n[nH]c4cc(Cl)c(C(C)(C)C)cc34)n2[C@H]2C[C@H](C)CC[C@H]2C(C)C)C1 [Example 111, N-(1-acryloylazetidin-3-yl)-2-(((5-(tert-butyl)-6-chloro-1H-indazol-3-yl)amino)methyl)-4-chloro-1-((1S,2S,5R)-2-isopropyl-5-methylcyclohexyl)-1H-imidazole-5-carboxamide]	B (a binding rate of 60% or more and less than 80% is rated “B,”)
C=CC(=O)N1CC(NC(=O)c2c(Cl)nc(CNc3n[nH]c4cc(Cl)c(C(C)(C)C)cc34)n2C2CCCN(C)C2)C1 (stereo not shown) [Example 118, N-(1-acryloylazetidin-3-yl)-2-(((5-(tert-butyl)-6-chloro-1H-indazol-3-yl)amino)methyl)-4-chloro-1-(1-methylpiperidin-3-yl)-1H-imidazole-5-carboxamide]	A (a binding rate of 80% or more is rated “A,”)
C=CC(=O)N1CC(NC(=O)c2c(C)nc(CNc3n[nH]c4cc(Cl)c(C(C)(C)C)cc34)n2Cc2ccccc2)C1 [Example 15, N-(1-acryloylazetidin-3-yl)-1-benzyl-2-(((5-(tert-butyl)-6-chloro-1H-indazol-3-yl)amino)methyl)-4-methyl-1H-imidazole-5-carboxamide]	A (a binding rate of 80% or more is rated “A,”)
C=CC(=O)N1CC(NC(=O)c2c(Cl)nc(CNc3n[nH]c4cc(Cl)c(C5(C(F)(F)F)CC5)cc34)n2C(C)C)C1 [Example 44, N-(1-acryloylazetidin-3-yl)-4-chloro-2-(((6-chloro-5-(1-(trifluoromethyl)cyclopropyl)-1H-indazol-3-yl)amino)methyl)-1-isopropyl-1H-imidazole-5-carboxamide]	B (a binding rate of 60% or more and less than 80% is rated “B,”)
C=CC(=O)N1CC[C@@H](NC(=O)c2c(Cl)nc(CNc3n[nH]c4cc(Cl)c(C(C)(C)C)cc34)n2C)C1 [Example 73, (R)—N-(1-acryloylpyrrolidin-3-yl)-2-(((5-(tert-butyl)-6-chloro-1H-indazol-3-yl)amino)methyl)-4-chloro-1-methyl-1H-imidazole-5-carboxamide]	B (a binding rate of 60% or more and less than 80% is rated “B,”)
C=CC(=O)N1CC(NC(=O)c2c(Cl)nc(CNc3n[nH]c4cc(Cl)c(C(C)C)cc34)n2C(C)C)C1 [Example 45, N-(1-acryloylazetidin-3-yl)-4-chloro-2-(((6-chloro-5-isopropyl-1H-indazol-3-yl)amino)methyl)-1-isopropyl-1H-imidazole-5-carboxamide]	A (a binding rate of 80% or more is rated “A,”)
C=CC(=O)N1CC(NC(=O)c2c(C)nc(CNc3n[nH]c4cc(Cl)c(C(C)(C)C)cc34)n2C(F)F)C1 [Example 21, N-(1-acryloylazetidin-3-yl)-2-(((5-(tert-butyl)-6-chloro-1H-indazol-3-yl)amino)methyl)-1-(difluoromethyl)-4-methyl-1H-imidazole-5-carboxamide]	B (a binding rate of 60% or more and less than 80% is rated “B,”)
C=CC(=O)N1CC(NC(=O)c2c(C)nc(CNc3n[nH]c4cc(Cl)c(C(C)(C)C)cc34)n2CCCC)C1 [Example 18, N-(1-acryloylazetidin-3-yl)-1-butyl 2-(((5-(tert-butyl)-6-chloro-1H-indazol-3-yl)amino)methyl)-4-methyl-1H-imidazole-5-carboxamide]	B (a binding rate of 60% or more and less than 80% is rated “B,”)
C=CC(=O)N1CC(NC(=O)c2c(F)nc(CNc3n[nH]c4cc(Cl)c(C(C)(C)C)cc34)n2C(C)C)C1 [Example 34, N-(1-acryloylazetidin-3-yl)-2-(((5-(tert-butyl)-6-chloro-1H-indazol-3-yl)amino)methyl)-4-fluoro-1-isopropyl-1H-imidazole-5-carboxamide]	A (a binding rate of 80% or more is rated “A,”)
C=CS(=O)(=O)N1CC(NC(=O)c2c(C)nc(CNc3n[nH]c4cc(Cl)c(C(C)(C)C)cc34)n2C(C)C)C1 [Example 86, 2-(((5-(tert-butyl)-6-chloro-1H-indazol-3-yl)amino)methyl)-1-isopropyl-4-methyl-N-(1-(vinylsulfonyl)azetidin-3-yl)-1H-imidazole-5-carboxamide]	A (a binding rate of 80% or more is rated “A,”)
C=CC(=O)N1C[C@@H](CN(C)C)[C@@H](NC(=O)c2c(C)nc(CNc3n[nH]c4cc(Cl)c(C(C)(C)C)cc34)n2C)C1 [Example 68, N-((3R,4R)-1-acryloyl-4-((dimethylamino)methyl)pyrrolidin-3-yl)-2-(((5-(tert-butyl)-6-chloro-1H-indazol-3-yl)amino)methyl)-1,4-dimethyl-1H-imidazole-5-carboxamide]	C (a binding rate of 40% or more and less than 60% is rated “C,”)
C=CC(=O)N1CC(NC(=O)c2cnc(CNc3n[nH]c4cc(Cl)c(CC)cc34)n2C)C1 [Example 39, N-(1-acryloylazetidin-3-yl)-2-(((6-chloro-5-ethyl-1H-indazol-3-yl)amino)methyl)-1-methyl-1H-imidazole-5-carboxamide]	C (a binding rate of 40% or more and less than 60% is rated “C,”)
C=CC(=O)N1C[C@@H](CC#N)[C@@H](NC(=O)c2c(C)nc(CNc3n[nH]c4cc(Cl)c(C(C)(C)C)cc34)n2C)C1 [Example 65, N-((3R,4R)-1-acryloyl-4-(cyanomethyl)pyrrolidin-3-yl)-2-(((5-(tert-butyl)-6-chloro-1H-indazol-3-yl)amino)methyl)-1,4-dimethyl-1H-imidazole-5-carboxamide]	B (a binding rate of 60% or more and less than 80% is rated “B,”)
C=CC(=O)N1CC(NC(=O)c2c(Cl)nc(CNc3n[nH]c4cc(Cl)c(C(C)(C)C)cc34)n2[C@@H]2CCN(CCOC)C2)C1 [Example 119, (R)—N-(1-acryloylazetidin-3-yl)-2-(((5-(tert-butyl)-6-chloro-1H-indazol-3-yl)amino)methyl)-4-chloro-1-(1-(2-methoxyethyl)pyrrolidin-3-yl)-1H-imidazole-5-carboxamide]	B (a binding rate of 60% or more and less than 80% is rated “B,”)
C=CC(=O)N1CC(NC(=O)c2c(Cl)nc(CNc3n[nH]c4cc(Cl)c(C(C)(C)C)cc34)n2C2CCCN(CC(F)F)C2)C1 (stereo not shown) [Example 117, N-(1-acryloylazetidin-3-yl)-2-(((5-(tert-butyl)-6-chloro-1H-indazol-3-yl)amino)methyl)-4-chloro-1-(1-(2,2-difluoroethyl)piperidin-3-yl)-1H-imidazole-5-carboxamide]	A (a binding rate of 80% or more is rated “A,”)
C=CC(=O)N1CC(NC(=O)c2c(C)nc(CNc3n[nH]c4cc(Cl)c(C(C)(C)C)cc34)n2C(C)(C)C)C1 [Example 24, N-(1-acryloylazetidin-3-yl)-1-(tert-butyl)-2-(((5-(tert-butyl)-6-chloro-1H-indazol-3-yl)amino)methyl)-4-methyl-1H-imidazole-5-carboxamide]	C (a binding rate of 40% or more and less than 60% is rated “C,”)
C=CC(=O)N1CC(NC(=O)c2c(C(F)(F)F)nc(CNc3n[nH]c4cc(Cl)c(C(C)(C)C)cc34)n2C(C)C)C1 [Example 32, N-(1-acryloylazetidin-3-yl)-2-(((5-(tert-butyl)-6-chloro-1H-indazol-3-yl)amino)methyl)-1-isopropyl-4-(trifluoromethyl)-1H-imidazole-5-carboxamide]	B (a binding rate of 60% or more and less than 80% is rated “B,”)
C=CC(=O)N1CC(NC(=O)c2c(Cl)nc(CNc3n[nH]c4cc(Cl)c(C(C)(C)C)cc34)n2C2CCCCC2)C1 [Example 109, N-(1-acryloylazetidin-3-yl)-2-(((5-(tert-butyl)-6-chloro-1H-indazol-3-yl)amino)methyl)-4-chloro-1-cyclohexyl-1H-imidazole-5-carboxamide]	B (a binding rate of 60% or more and less than 80% is rated “B,”)
C=CC(=O)N1C[C@@H](COC)[C@@H](NC(=O)c2c(C)nc(CNc3n[nH]c4cc(Cl)c(C(C)(C)C)cc34)n2C)C1 [Example 67, N-((3R,4R)-1-acryloyl-4-(methoxymethyl)pyrrolidin-3-yl)-2-(((5-(tert-butyl)-6-chloro-1H-indazol-3-yl)amino)methyl)-1,4-dimethyl-1H-imidazole-5-carboxamide]	A (a binding rate of 80% or more is rated “A,”)
Cc1nc(CNc2n[nH]c3cc(Cl)c(C(C)(C)C)cc23)n(C(C)C)c1C(=O)NC1CN(C(=O)/C=C\Cl)C1 [Example 83, (Z)-2-(((5-(tert-butyl)-6-chloro-1H-indazol-3-yl)amino)methyl)-N-(1-(3-chloroacryloyl)azetidin-3-yl)-1-isopropyl-4-methyl-1H-imidazole-5-carboxamide]	D (a binding rate of 20% or more and less than 40% is rated “D,”)
C=CC(=O)N1CC[C@@H](N(C)C(=O)c2cnc(CNc3n[nH]c4cc(Cl)c(C(C)(C)C)cc34)n2C)C1 [Example 77, (R)—N-(1-acryloylpyrrolidin-3-yl)-2-(((5-(tert-butyl)-6-chloro-1H-indazol-3-yl)amino)methyl)-N,1-dimethyl-1H-imidazole-5-carboxamide]	C (a binding rate of 40% or more and less than 60% is rated “C,”)
C=CC(=O)N1C[C@@H](NC(=O)c2c(C)nc(CNc3n[nH]c4cc(Cl)c(C(C)(C)C)cc34)n2C)[C@@H]1C (relative stereo) [Example 59, N-(trans-1-acryloyl-2-methylazetidin-3-yl)-2-(((5-(tert-butyl)-6-chloro-1H-indazol-3-yl)amino)methyl)-1,4-dimethyl-1H-imidazole-5-carboxamide]	B (a binding rate of 60% or more and less than 80% is rated “B,”)

— US12065430B2, “Indazole compound or salt thereof” (TAIHO PHARMACEUTICAL CO., LTD., priority 2018, dated 2024)
